For one assay, the target named is human NMUR2 receptor (Homo sapiens, UniProt Q9GZQ4). Kind of assay: Radioligand binding competition assay (RLB), human NMUR2 receptor binding (SPA, [125I]-Neuromedin U-25). Set-up: host or cells: CHO-K1. The settings on record: CHO-K1 hNMUR2 cell membranes, 4 hours at RT. The text has this:
Example 1: Radioligand Binding Competition Assay (RLB) Human NMUR2 Receptor Binding
The test is based on membranes prepared from a Human NMUR2/Apoaequorin Stable Cell Line (Creative Biogene, Cat. No. CSC-RG1309).
Cell Line Description: CHO-NMUR2 cell line is clonally derived from a CHO-K1 cell line, which has been transfected with a bicistronic expression plasmid containing the sequence coding for the human neuromedin U receptor 2 (AF242874.1). MOSAIC-ID: CL16550616.
Membrane preparation: Cells were broken by nitrogen cavitation (900 psi, 1 hour). Intact cells were removed by centrifugation (400 rcf (relative centrifugal force), 10 minutes, 4° C.) before the crude membrane fraction was collected by ultracentrifugation (20.000 rcf, 1 hour, 4° C.).
2) Human NMUR2 Receptor Binding Assay (Radioligand: [125I]-Neuromedin U-25 (Human))
In this Scintillation Proximity Assay (SPA) design, the membranes immobilize directly to the PVT-WGA-PEI type A beads (polyethyleneimine treated polyvinyltoluene beads coupled to wheatgerm agglutinin, Perkin Elmer) via interactions of wheat germ agglutinate and glycosylated membrane structures. Thereby the radioactively la-belled ligand, bound to NMUR2 receptors on the membrane, comes in close proximity to the solid scintillator of the PVT bead. Radioactive human neuromedin U-25 then stimulates the scintillant to emit light. In contrast, radioligand not bound to the receptor is too distant from the bead to elicit a signal.
For the Scintillation Proximity Assay the CHO-K1 hNMUR2 cell membranes and SPA-beads are diluted to concentrations, which assure a robust signal to background ratio. The SPA incubation buffer consists of 25 mM Hepes (pH=7.0), 5 mM MgCl2, 1 mM CaCl2, 10 ug/mL Saponine and 0.1% bovine serum albumin and is used for all dilutions.
Final assay setup in 96-well plate: 20 μL of 10× test compound dilutions+40 μL of 5× [125l]-Neuromedin U-25 (1× approx. 30 pM; 2000 μCi/mmol)+60 μL membrane dilution (approx. 2.5 μg membrane protein)+80 μL SPA bead dilution (0.75 mg).
The assay is incubated for 4 hours at RT, including controls for specific binding where no displacer is added and non-specific binding by adding unlabeled hNMU-25 at 100 nM. Bound radioactivity is determined by scintillation counting (MicroBeta Trilux 1450, Perkin Elmer, detection of 125I decay). […] The system assumes one binding site with no relevant radioligand depletion (<10%) and that the binding is reversible and at equilibrium.

The next assay deals with T1, human NMUR1 receptor (Homo sapiens, UniProt Q9HB89).
T1 construct: expressed in transfected cells; host or cells: CHO-K1
T1 sequence (Q9HB89 1-426): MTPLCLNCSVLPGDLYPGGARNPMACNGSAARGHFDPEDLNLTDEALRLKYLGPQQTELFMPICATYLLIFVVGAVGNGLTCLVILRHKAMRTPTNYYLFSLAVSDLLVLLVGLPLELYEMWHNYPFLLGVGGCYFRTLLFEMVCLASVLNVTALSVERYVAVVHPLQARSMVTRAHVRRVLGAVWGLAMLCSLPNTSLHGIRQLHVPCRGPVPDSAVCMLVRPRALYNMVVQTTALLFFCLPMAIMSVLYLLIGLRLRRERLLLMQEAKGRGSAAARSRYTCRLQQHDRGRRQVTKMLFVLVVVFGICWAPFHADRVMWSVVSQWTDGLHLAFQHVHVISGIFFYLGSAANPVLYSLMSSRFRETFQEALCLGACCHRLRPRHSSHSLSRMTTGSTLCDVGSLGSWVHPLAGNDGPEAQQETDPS
Kind of assay: IP1 Gq HTRF assay, activation of human NMUR1 in buffer. The format is cell-based. Particulars: CHO-K1 cells expressing human NMUR1, stimulation buffer with 0.1% BSA; read-out: EC50 (hNMUR1) buffer. Summed up:
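IP-One HTRF competition (665/620 nm ratio) read after 1 h agonist exposure at 37 °C in pH 7.4 HEPES/HBSS stimulation buffer containing 50 mM LiCl, 0.1% BSA, 1% DMSO. Cells: CHO-K1 stably expressing human NMUR2 or NMUR1. EC50 by 4-parameter nonlinear regression of 8-point curves.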
A general note: Time-resolved FRET reads energy transfer from a long-lived donor to a nearby acceptor.

Each structure is given as a SMILES string. Residues, ends and D or L forms follow the SMILES beside them.

human NMUR2 receptor, sequence (Q9GZQ4 whole entry): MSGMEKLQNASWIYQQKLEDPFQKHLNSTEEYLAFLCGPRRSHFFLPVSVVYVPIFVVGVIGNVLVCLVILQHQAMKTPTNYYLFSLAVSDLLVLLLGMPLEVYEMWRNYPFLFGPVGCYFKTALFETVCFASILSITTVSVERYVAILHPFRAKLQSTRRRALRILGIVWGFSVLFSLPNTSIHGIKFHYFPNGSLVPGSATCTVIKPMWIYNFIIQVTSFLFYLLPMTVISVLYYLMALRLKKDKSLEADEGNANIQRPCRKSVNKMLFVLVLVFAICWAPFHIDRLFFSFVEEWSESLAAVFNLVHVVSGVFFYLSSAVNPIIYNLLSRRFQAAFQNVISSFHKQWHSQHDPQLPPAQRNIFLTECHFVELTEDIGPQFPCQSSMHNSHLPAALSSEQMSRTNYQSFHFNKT

As usually defined, the Ki is a dissociation constant, usually derived from enzyme kinetics or from competition with a known ligand. A word on the EC50: it is the midpoint of the concentration-response curve. `CCCC[C@H](NC(=O)[C@H](CC(C)C)N(C)C(=O)[C@H](Cc1ccccc1)NC(=O)[C@H](Cc1ccc(O)cc1)NC(=O)CN1CCN(CCNC(=O)CN(C)C(=O)CN(C)C(=O)CN(C)C(=O)CN(C)C(=O)CN(C)C(=O)CN(C)C(=O)CN(C)C(=O)CN(C)C(=O)CN(C)C(=O)CN(C)C(=O)CN(C)C(=O)CN(C)C(=O)CN(C)C(=O)CN(C)C(=O)CN(C)C(=O)CC[C@H](NC(=O)CC[C@H](NC(=O)CC[C@H](NC(=O)CCCCCCCCCCCCCCCCCCC(=O)O)C(=O)O)C(=O)O)C(=O)O)CC1)C(=O)N[C@@H](CCCNC(=N)N)C(=O)N1CCC[C@H]1C(=O)N[C@@H](CCCNC(=N)N)C(=O)NCC(N)=O` [Compound 9, C20DA-gGlu3-Sar15-AEPipAc-Tyr-Phe-NMeLeu-Nle-Arg-Pro-Arg-Gly-NH2] (HELM PEPTIDE1{[O=C(O)CCCCCCCCCCCCCCCCCCC(=O)[*:2]].[gGlu].[gGlu].[gGlu].[Sar].[Sar].[Sar].[Sar].[Sar].[Sar].[Sar].[Sar].[Sar].[Sar].[Sar].[Sar].[Sar].[Sar].[Sar].[O=C(CN1CCN(CCN[*:1])CC1)[*:2]].Y.F.[meL].[Nle].R.P.R.G.[am]}$$$$V2.0): the Ki on human NMUR2 receptor worked out at 58.3 nM. Moreover, the EC50 on human NMUR1 receptor was 220 nM.

At human NMUR2 receptor, `CCCC[C@H](NC(=O)[C@H](CC(C)C)N(C)C(=O)[C@H](Cc1ccccc1)NC(=O)[C@H](Cc1ccc(O)cc1)NC(=O)CN1CCN(CCNC(=O)CN(C)C(=O)CN(C)C(=O)CN(C)C(=O)CN(C)C(=O)CN(C)C(=O)CN(C)C(=O)CN(C)C(=O)CN(C)C(=O)CN(C)C(=O)CN(C)C(=O)CN(C)C(=O)CN(C)C(=O)CN(C)C(=O)CN(C)C(=O)CN(C)C(=O)CC[C@H](NC(=O)CC[C@H](NC(=O)CC[C@H](NC(=O)CCCCCCCCCCCCCCCCCCC(=O)O)C(=O)O)C(=O)O)C(=O)O)CC1)C(=O)N[C@@H](CCCNC(=N)N)C(=O)N(C)[C@@H](C)C(=O)N[C@@H](CCCNC(=N)N)C(=O)NCC(N)=O` [Compound 10, C20DA-gGlu3-Sar15-AEPipAc-Tyr-Phe-NMeLeu-Nle-Arg-NMeAla-Arg-Gly-NH2] (HELM PEPTIDE1{[O=C(O)CCCCCCCCCCCCCCCCCCC(=O)[*:2]].[gGlu].[gGlu].[gGlu].[Sar].[Sar].[Sar].[Sar].[Sar].[Sar].[Sar].[Sar].[Sar].[Sar].[Sar].[Sar].[Sar].[Sar].[Sar].[O=C(CN1CCN(CCN[*:1])CC1)[*:2]].Y.F.[meL].[Nle].R.[meA].R.G.[am]}$$$$V2.0) gave an inhibition constant Ki of 204 nM. Besides, the EC50 at human NMUR1 receptor came out at 720 nM.

`CCCC[C@H](NC(=O)[C@H](CC(C)C)N(C)C(=O)[C@H](Cc1ccccc1)NC(=O)[C@H](Cc1ccc(O)cc1)NC(=O)CN1CCN(CCNC(=O)CN(C)C(=O)CN(C)C(=O)CN(C)C(=O)CN(C)C(=O)CN(C)C(=O)CN(C)C(=O)CN(C)C(=O)CN(C)C(=O)CN(C)C(=O)CN(C)C(=O)CN(C)C(=O)CN(C)C(=O)CN(C)C(=O)CN(C)C(=O)CN(C)C(=O)CC[C@H](NC(=O)CC[C@H](NC(=O)CC[C@H](NC(=O)CCCCCCCCCCCCCCCCC(=O)O)C(=O)O)C(=O)O)C(=O)O)CC1)C(=O)N[C@@H](CCCNC(=N)N)C(=O)N(C)[C@@H](C)C(=O)N[C@@H](CCCNC(=N)N)C(=O)NCC(N)=O` [Compound 11, C18DA-gGlu3-Sar15-AEPipAc-Tyr-Phe-NMeLeu-Nle-Arg-NMeAla-Arg-Gly-NH2] (HELM PEPTIDE1{[O=C(O)CCCCCCCCCCCCCCCCC(=O)[*:2]].[gGlu].[gGlu].[gGlu].[Sar].[Sar].[Sar].[Sar].[Sar].[Sar].[Sar].[Sar].[Sar].[Sar].[Sar].[Sar].[Sar].[Sar].[Sar].[O=C(CN1CCN(CCN[*:1])CC1)[*:2]].Y.F.[meL].[Nle].R.[meA].R.G.[am]}$$$$V2.0) displayed a Ki at human NMUR2 receptor of 76.3 nM. For the same compound, on human NMUR1 receptor, the EC50 turned out to be 1100 nM.

In turn, `CCCC[C@H](NC(=O)[C@H](CC(C)C)N(C)C(=O)[C@H](Cc1ccccc1)NC(=O)[C@H](Cc1ccc(O)cc1)NC(=O)CN1CCN(CCNC(=O)CN(C)C(=O)CN(C)C(=O)CN(C)C(=O)CN(C)C(=O)CN(C)C(=O)CN(C)C(=O)CN(C)C(=O)CN(C)C(=O)CN(C)C(=O)CN(C)C(=O)CN(C)C(=O)CN(C)C(=O)CC[C@H](NC(=O)CC[C@H](NC(=O)CC[C@H](NC(=O)CCCCCCCCCCCCCCCCC(=O)O)C(=O)O)C(=O)O)C(=O)O)CC1)C(=O)N[C@@H](CCCNC(=N)N)C(=O)N(C)[C@@H](C)C(=O)N[C@@H](CCCNC(=N)N)C(=O)NCC(N)=O` [Compound 12, C18DA-gGlu3-Sar12-AEPipAc-Tyr-Phe-NMeLeu-Nle-Arg-NMeAla-Arg-Gly-NH2] registered a Ki at human NMUR2 receptor of 36.2 nM. Further, at human NMUR1 receptor, the EC50 was 1000 nM.

Take `CCCC[C@H](NC(=O)[C@H](CC(C)C)N(C)C(=O)[C@H](Cc1ccccc1)NC(=O)[C@H](Cc1ccc(O)cc1)NC(=O)CN1CCN(CCNC(=O)CN(C)C(=O)CN(C)C(=O)CN(C)C(=O)CN(C)C(=O)CN(C)C(=O)CN(C)C(=O)CN(C)C(=O)CN(C)C(=O)CN(C)C(=O)CN(C)C(=O)CN(C)C(=O)CN(C)C(=O)CC[C@H](NC(=O)CC[C@H](NC(=O)CC[C@H](NC(=O)CCCCCCCCCCCCCCCCC(=O)O)C(=O)O)C(=O)O)C(=O)O)CC1)C(=O)N[C@@H](CCCN)C(=O)N(C)[C@@H](C)C(=O)N[C@@H](CCCNC(=N)N)C(=O)NCC(N)=O` [Compound 20, C18DA-gGlu3-Sar12-AEPipAc-Tyr-Phe-NMeLeu-Nle-Orn-NMeAla-Arg-Gly-NH2]: the inhibition constant (Ki) on human NMUR2 receptor was determined as 23.7 nM. The EC50 at human NMUR1 receptor was more than 1000 nM.

`CCCC[C@H](NC(=O)[C@H](CC(C)C)N(C)C(=O)[C@H](Cc1ccccc1)NC(=O)[C@H](Cc1ccc(O)cc1)NC(=O)CN1CCN(CCNC(=O)CN(C)C(=O)CN(C)C(=O)CN(C)C(=O)CN(C)C(=O)CN(C)C(=O)CN(C)C(=O)CN(C)C(=O)CN(C)C(=O)CN(C)C(=O)CN(C)C(=O)CN(C)C(=O)CN(C)C(=O)CN(C)C(=O)CN(C)C(=O)CN(C)C(=O)CC[C@H](NC(=O)CC[C@H](NC(=O)CC[C@H](NC(=O)CCCCCCCCCCCCCCCCC(=O)O)C(=O)O)C(=O)O)C(=O)O)CC1)C(=O)N[C@@H](CCCN)C(=O)N1CCC[C@H]1C(=O)N[C@@H](CCCNC(=N)N)C(=O)NCC(N)=O` [Compound 21, C18DA-gGlu3-Sar15-AEPipAc-Tyr-Phe-NMeLeu-Nle-Orn-Pro-Arg-Gly-NH2] (HELM PEPTIDE1{[O=C(O)CCCCCCCCCCCCCCCCC(=O)[*:2]].[gGlu].[gGlu].[gGlu].[Sar].[Sar].[Sar].[Sar].[Sar].[Sar].[Sar].[Sar].[Sar].[Sar].[Sar].[Sar].[Sar].[Sar].[Sar].[O=C(CN1CCN(CCN[*:1])CC1)[*:2]].Y.F.[meL].[Nle].[Orn].P.R.G.[am]}$$$$V2.0): the Ki at human NMUR2 receptor stood at 55.9 nM. The EC50 at human NMUR1 receptor was more than 1000 nM.

For the origin of these results see patent publication US20240279278A1, “NMU RECEPTOR 2 AGONISTS” (Boehringer Ingelheim International GmbH, priority 2023, published 2024).
